Assay results taken from patent US9283198B2, “Materials and methods for treating viral infections” (priority 2005, dated 2016).
In brackets after ≈: the same amount, converted by molar mass. Where a name gives a salt, the structure may show the parent alone. Read-outs that look alike come from different tables or passages of the source.

What was measured:
[1] = test system: influenza virus; settings: in vivo, po
[2] = test system: H5N1 avian influenza viruses CV strain; test: animal or person; format: in vivo, H5N1 avian influenza virus; settings: for IC50: Influenza A virus
[3] = test system: embryonated hen eggs; settings: in vivo
[4] = test system: H5N1 avian influenza virus, WV strain; settings: in vivo, po
[5] = H5N1, read-out: IC50 against H5N1 avian influenza virus

| Structure (SMILES) | time until symptoms associated with the influenza infection had disappeared [1] [h] | IC50 [2, 5] [mg/mL] | IC50 against H5N1 avian influenza virus ([2]; in vivo) [mg/mL] | LD50 of TG21 to embryonated hen eggs ([3]; chicken (hen) embryo) [mg/mL] | dose below which no side-effect was found ([3]; chicken (hen) embryo) | toxicity at high doses [3] | IC50 ([2]; H5N1, read-out: IC50 (drug concentration required to survive 50% embryo)) [mg/mL] | protection rate in mice [4] [%] |
| --- | --- | --- | --- | --- | --- | --- | --- | --- |
| NCCS [cysteamine hydrochloride] | ≤ 24 |  |  |  |  |  |  |  |
| NCCS [TG21, Cysteamine] |  | 17.5 (≈ 227 mM) | 16.1 (≈ 209 mM) | 32.1 | below 12.5 mg/mL | some toxicity was detected |  |  |
| CCOC(=O)C1=C[C@@H](OC(CC)CC)[C@H](NC(C)=O)[C@@H](N)C1 [TAMIFLU®, oseltamivir phosphate, reference compound] |  | 19.4 |  |  |  |  | 25.1 | 60 |
